Values quoted from earlier work as cited in patent US9744157B2, “Combinations of solifenacin and salivary stimulants for the treatment of overactive bladder” (TheraVida, Inc., priority 2011, dated 2017).

System: saliva output
Settings: 5 mg of pilocarpine

In the case of CC[C@@H]1C(=O)OC[C@@H]1Cc1cncn1C [pilocarpine], the “time of maximum saliva output after administration” value is listed as “about 30 minutes”.
